pKi: −log10 of the molar value.
target: human σ1 receptor (Homo sapiens, UniProt Q99720); test: Human σ1 receptor radioligand assay ([3H](+)-pentazocine, transfected HEK-293 membranes); assay type: binding; design: μ and σ1 dual binding: key to the marks not given beside the values; conditions: one class symbol for both Ki-σ1 (human σ1 receptor, A1) and Ki-μ (human μ-opioid receptor, A2)
Experimental: Human σ1 Receptor Radioligand Assay
To investigate binding properties of test compounds to human σ1 receptor, transfected HEK-293 membranes and [^3H](+)-pentazocine (Perkin Elmer, NET-1056), as the radioligand, were used. The assay was carried out with 7 μg of membrane suspension, 5 nM of [^3H](+)-pentazocine in either absence or presence of either buffer or 10 μM Haloperidol for total and non-specific binding, respectively. Binding buffer contained Tris-HCl 50 mM at pH 8. Plates were incubated at 37° C. for 120 minutes. After the incubation period, the reaction mix was then transferred to MultiScreen HTS, FC plates (Millipore), filtered and plates were washed 3 times with ice-cold 10 mM Tris-HCL (pH7.4). Filters were dried and counted at approximately 40% efficiency in a MicroBeta scintillation counter (Perkin-Elmer) using EcoScint liquid scintillation cocktail

human σ1 receptor, sequence (Q99720 whole entry): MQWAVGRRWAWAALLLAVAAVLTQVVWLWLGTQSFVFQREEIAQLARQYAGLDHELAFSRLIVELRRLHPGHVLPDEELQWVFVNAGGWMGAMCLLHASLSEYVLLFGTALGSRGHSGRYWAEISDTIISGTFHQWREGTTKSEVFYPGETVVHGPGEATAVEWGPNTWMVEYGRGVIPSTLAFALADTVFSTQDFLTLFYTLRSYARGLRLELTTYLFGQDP

| Compound | μ and σ1 dual binding |
| --- | --- |
| CC(C)CCN1CCC([C@@]2(C(=O)c3ccccn3)CCO[C@@H](C)C2)CC1 [Example 171] | ++ |
| c1ccc(CN2CCC(C3(c4ccccn4)CCOCC3)CC2)cc1 [Example 124, 2-(4-(1-benzylpiperidin-4-yl)tetrahydro-2H-pyran-4-yl)pyridine] | ++ |
| CC(C)OCCN1CCN([C@@]2(C(=O)c3ccccn3)CCO[C@@H](C)C2)CC1 [Example 190, ((2S,4S)-4-(4-(2-isopropoxyethyl)piperazin-1-yl)-2-methyltetrahydro-2H-pyran-4-yl)(pyridin-2-yl)methanone] | ++ |
| CC(C)OCCN1CCN(C2(C(=O)c3ccccc3)CCOC(C)(C)C2)CC1 (stereo not drawn) [Example 13, (4-(4-(2-isopropoxyethyl)piperazin-1-yl)-2,2-dimethyltetrahydro-2H-pyran-4-yl)(phenyl)methanone] | ++ |
| CC1(C)CC(C(=O)c2ccccn2)(N2CCN(Cc3ccccc3)CC2)CC(C)(C)O1 [Example 17, (4-(4-benzylpiperazin-1-yl)-2,2,6,6-tetramethyltetrahydro-2H-pyran-4-yl)(pyridin-2-yl)methanone] | ++ |
| CC(C)CCN1CCN([C@@]2(C(=O)c3ccccn3)CCO[C@H](C)C2)CC1 [Example 97] | ++ |
| CC1(C)CC(C(O)c2ccccn2)(N2CCN(Cc3ccccc3)CC2)CCO1 (stereo not drawn) [Example 129, (4-(4-benzylpiperazin-1-yl)-2,2-dimethyltetrahydro-2H-pyran-4-yl)(pyridin-2-yl)methanol] | ++ |
| CC(C)COCCN1CCN([C@@]2(C(=O)c3ccccn3)CCOC(C)(C)C2)CC1 [Example 136, (S)-(4-(4-(2-isobutoxyethyl)piperazin-1-yl)-2,2-dimethyltetrahydro-2H-pyran-4-yl)(pyridin-2-yl)methanone] | ++ |
| CCC1(C2CCN(Cc3ccccc3)CC2)CCOC(C)(C)C1 (stereo not drawn) [Example 167, 1-Benzyl-4-(4-ethyl-2,2-dimethyltetrahydro-2H-pyran-4-yl)piperidine] | ++ |
| CC(C)CCN1CCN([C@@]2(C(=O)c3ccccn3)CCO[C@@H](C)C2)CC1 [Example 247, ((2S,4S)-4-(4-isopentylpiperazin-1-yl)-2-methyltetrahydro-2H-pyran-4-yl)(pyridin-2-yl)methanone] | ++ |
| CC(C)OCCN1CCN(C2(C)CCOCC2)CC1 [Example 184, 1-(2-isopropoxyethyl)-4-(4-methyltetrahydro-2H-pyran-4-yl)piperazine] | ++ |
| O=C(c1ccccn1)C1(C2CCN(Cc3ccccc3)CC2)CCOCC1 [Example 21, (4-(1-benzylpiperidin-4-yl)tetrahydro-2H-pyran-4-yl)(pyridin-2-yl)methanone] | ++ |
| CC1(N2CCN(Cc3ccc(C#N)cc3)CC2)CCOCC1 [Example 183, 4-((4-(4-methyltetrahydro-2H-pyran-4-yl)piperazin-1-yl)methyl)benzonitrile] | ++ |

same assay, conditions: one class symbol for both Ki-σ1 (human σ1 receptor, A1) and Ki-μ (human μ-opioid receptor, A2); read-out: μ and σ1 dual binding

| Compound | pKi |
| --- | --- |
| CC(C)OCCN1CCN([C@]2(C(=O)c3ccccn3)CCOC(C)(C)C2)CC1 [Example 139, (R)-(4-(4-(2-isopropoxyethyl)piperazin-1-yl)-2,2-dimethyltetrahydro-2H-pyran-4-yl)(pyridin-2-yl)methanone] | < 6.30 |
| CC[C@@]1(N2CCN(Cc3ccc(C#N)cc3)CC2)CCO[C@@H](C)C1 [Example 250, 4-((4-((2S,4R)-4-ethyl-2-methyltetrahydro-2H-pyran-4-yl)piperazin-1-yl)methyl)benzonitrile] | < 6.30 |
| O=C(c1ccccn1)C1(N2CCN(Cc3ccc(F)c(F)c3)CC2)CCOCC1 [Example 197, (4-(4-(3,4-difluorobenzyl)piperazin-1-yl)tetrahydro-2H-pyran-4-yl)(pyridin-2-yl)methanone] | < 6.30 |
| CC1(C)CC(C(=O)c2ccccn2)(N2CCN(Cc3ccncc3)CC2)CCO1 (stereo not drawn) [Example 59, (2,2-dimethyl-4-(4-(pyridin-4-ylmethyl)piperazin-1-yl)tetrahydro-2H-pyran-4-yl)(pyridin-2-yl)methanone] | < 6.30 |
| COc1ccc(CN2CCN(C3(C(=O)c4ccccn4)CCOCC3)CC2)cc1F [Example 196, (4-(4-(3-fluoro-4-methoxybenzyl)piperazin-1-yl)tetrahydro-2H-pyran-4-yl)(pyridin-2-yl)methanone] | < 6.30 |
| O=C(c1ccccn1)C1(N2CCN(Cc3ccc(OC(F)(F)F)cc3)CC2)CCOCC1 [Example 194, pyridin-2-yl(4-(4-(4-(trifluoromethoxy)benzyl)piperazin-1-yl)tetrahydro-2H-pyran-4-yl)methanone] | < 6.30 |
| CC(C)OCCN1CCN([C@]2(C(=O)c3ccccn3)CCO[C@@H](C)C2)CC1 [Example 96] | < 6.30 |
| C[C@@H]1C[C@](C(=O)c2ccccn2)(N2CCN(Cc3ccccc3)CC2)CCO1 [Example 154, ((2R,4R)-4-(4-benzylpiperazin-1-yl)-2-methyltetrahydro-2H-pyran-4-yl)(pyridin-2-yl)methanone] | > 6.30 |
| CCC1(N2CCN(CCc3ccccc3)CC2)CCOC(C)(C)C1 (stereo not drawn) [Example 52, 1-(4-ethyl-2,2-dimethyltetrahydro-2H-pyran-4-yl)-4-phenethylpiperazine] | > 6.30 |
| C[C@@H]1C[C@@](C(=O)c2ccccn2)(N2CCN(CCc3ccccc3)CC2)CCO1 [Example 26] | > 6.30 |
| C[C@H]1C[C@](C(=O)c2ccccn2)(N2CCN(Cc3ccccc3)CC2)CCO1 [Example 27] | > 6.30 |
| N#Cc1ccc(CN2CCN(C3(C(=O)c4ccccn4)CCOCC3)CC2)cc1F [Example 192, 2-fluoro-4-((4-(4-picolinoyltetrahydro-2-pyran-4-yl)piperazin-1-yl)methyl)benzonitrile] | < 6.30 |
| CC1(C)CC(C(=O)c2ccccn2)(N2CCN(CCc3cccnc3)CC2)CCO1 (stereo not drawn) [Example 80, (2,2-dimethyl-4-(4-(2-(pyridin-3-yl)ethyl)piperazin-1-yl)tetrahydro-2H-pyran-4-yl)(pyridin-2-yl)methanone] | < 6.30 |
| CC(C)OCCN1CCC(C2(C(=O)c3ccccn3)CCOC(C)(C)C2)CC1 (stereo not drawn) [Example 77, (4-(1-(2-isopropoxyethyl)piperidin-4-yl)-2,2-dimethyltetrahydro-2H-pyran-4-yl)(pyridin-2-yl)methanone] | > 6.30 |
| CC(C)OCCN(C)[C@@H]1CCN([C@@]2(C(=O)c3ccccn3)CCOC(C)(C)C2)C1 [Example 145, ((S)-4-((R)-3-((2-isopropoxyethyl)(methyl)amino)pyrrolidin-1-yl)-2,2-dimethyltetrahydro-2H-pyran-4-yl)(pyridin-2-yl)methanone] | < 6.30 |

same assay, conditions: μ and σ1 dual binding, one class symbol for both Ki-σ1 (human σ1 receptor, A1) and Ki-μ (human μ-opioid receptor, A2)

| Compound | pKi |
| --- | --- |
| CC(C)(F)CCN1CCN(C2(C(=O)c3ccccn3)CCOC(C)(C)C2)CC1 (stereo not drawn) [Example 117, (4-(4-(3-fluoro-3-methylbutyl)piperazin-1-yl)-2,2-dimethyltetrahydro-2H-pyran-4-yl)(pyridin-2-yl)methanone] | > 6.30 |
| CC(C)CCN1CCN([C@@]2(C(=O)c3ccccn3)CCOC(C)(C)C2)CC1 [Example 132, (S)-(4-(4-isopentylpiperazin-1-yl)-2,2-dimethyltetrahydro-2H-pyran-4-yl)(pyridin-2-yl)methanone] | > 6.30 |
| c1ccc(CN2CCN(C3(c4ccccc4)CCOC4(CCCC4)C3)CC2)cc1 (stereo not drawn) [Example 32, 1-benzyl-4-(9-phenyl-6-oxaspiro[4.5]decan-9-yl)piperazine] | > 7.00 |
| C[C@H]1C[C@@](C(=O)c2ccccn2)(N2CCN(CCc3ccccc3F)CC2)CCO1 [Example 170] | > 6.30 |
| CC(C)CCN1CCC(C2(C(=O)c3ccccn3)CCOC(C)(C)C2)CC1 (stereo not drawn) [Example 76, (4-(1-isopentylpiperidin-4-yl)-2,2-dimethyltetrahydro-2H-pyran-4-yl)(pyridin-2-yl)methanone] | > 7.00 |
| CC(C)CCN1CCC([C@]2(C(=O)c3ccccn3)CCOC(C)(C)C2)CC1 [Example 114, (S)-(4-(1-isopentylpiperidin-4-yl)-2,2-dimethyltetrahydro-2H-pyran-4-yl)(pyridin-2-yl)methanone] | > 6.30 |
| CC1(C)CC(Cc2ccccc2)(N2CCN(Cc3ccccc3)CC2)CCO1 (stereo not drawn) [Example 40, 1-benzyl-4-(4-benzyl-2,2-dimethyltetrahydro-2H-pyran-4-yl)piperazine] | > 7.00 |
| CC(C)OCCN1CCC([C@@]2(C(=O)c3ccccn3)CCO[C@@H](C)C2)CC1 [Example 248, ((2S,4R)-4-(1-(2-isopropoxyethyl)piperidin-4-yl)-2-methyltetrahydro-2H-pyran-4-yl)(pyridin-2-yl)methanone] | > 6.30 |
| CC1(C)CC(C(=O)c2ccccn2)(N2CCN(CCc3ccccc3)CC2)CCO1 (stereo not drawn) [Example 54, (2,2-dimethyl-4-(4-phenethylpiperazin-1-yl)tetrahydro-2H-pyran-4-yl)(pyridin-2-yl)methanone] | > 6.30 |
| CC1(C)CC(C(=O)c2ccccn2)(N2CCN(CCc3ccccc3F)CC2)CCO1 (stereo not drawn) [Example 111, (4-(4-(2-fluorophenethyl)piperazin-1-yl)-2,2-dimethyltetrahydro-2H-pyran-4-yl)(pyridin-2-yl)methanone] | > 6.30 |
| CC(C)OCCCN1CCC(C2(C(=O)c3ccccn3)CCOC(C)(C)C2)CC1 (stereo not drawn) [Example 107, (4-(1-(3-isopropoxypropyl)piperidin-4-yl)-2,2-dimethyltetrahydro-2H-pyran-4-yl)(pyridin-2-yl)methanone] | < 6.30 |

Reference: US10807970B2 (priority 2016, dated 2020)
